Laboratory results taken from the supplement of paper PMC10307832.

What was measured:
Experiment in all cases: relative viability (nuclei count vs DMSO), 5 days (fraction); higher = more cells survive
[1] = test system: NCI-H1734
In short: (§1)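 Lung cancer cell lines were pin-tool dosed in 1536-well plates on the day after seeding, with either a lone drug or a fixed anchor-drug dose plus five library-drug doses (not always all listed) in √10 steps. Nuclei were counted on 4× images after 5 days. Relative viability is the ratio of treated-well to vehicle-well nuclei counts, with each value a median of duplicate plates.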

[2] = test system: LK-2
In short: as §1

[3] = test system: UMC-11
In short: as §1

[4] = test system: NCI-H2009
In short: as §1

[5] = test system: NCI-H1623
In short: as §1

[6] = test system: NCI-H1650
In short: as §1

[7] = test system: CAL-12T
In short: as §1

[8] = test system: A-427
In short: as §1

With `Cc1sc2c(c1C)C(c1ccc(Cl)cc1)=N[C@@H](CC(=O)OC(C)(C)C)c1nnc(C)n1-2` [JQ1] + Cc1nc(Nc2ncc(C(=O)Nc3c(C)cccc3Cl)s2)cc(N2CCN(CCO)CC2)n1 [Dasatinib] (partner 0.075 µM) the relative viability ([1]; first compound 0.04 µM) was 0.55, the relative viability ([1]; first compound 0.1265 µM) was 0.444 and the relative viability ([1]; first compound 0.4 µM) was 0.457. It also gave a relative viability ([1]; first compound 1.265 µM) of 0.454, a relative viability ([1]; first compound 4 µM) of 0.382 and a relative viability ([2]; first compound 0.04 µM) of 0.254. It also gave a relative viability ([2]; first compound 0.1265 µM) of 0.156, a relative viability ([2]; first compound 0.4 µM) of 0.162 and a relative viability ([2]; first compound 1.265 µM) of 0.108. The relative viability ([2]; first compound 4 µM) was 0.112, the relative viability ([3]; first compound 0.04 µM) was 0.501 and the relative viability ([3]; first compound 0.1265 µM) was 0.43. For the same compound, the relative viability ([3]; first compound 0.4 µM) was 0.321, the relative viability ([3]; first compound 1.265 µM) was 0.239 and the relative viability ([3]; first compound 4 µM) was 0.221. It also gave a relative viability ([4]; first compound 0.04 µM) of 0.258, a relative viability ([4]; first compound 0.1265 µM) of 0.156 and a relative viability ([4]; first compound 0.4 µM) of 0.196. It also gave a relative viability ([4]; first compound 1.265 µM) of 0.154, a relative viability ([4]; first compound 4 µM) of 0.185 and a relative viability ([5]; first compound 0.04 µM) of 0.634. The relative viability ([5]; first compound 0.1265 µM) was 0.483, the relative viability ([5]; first compound 0.4 µM) was 0.466 and the relative viability ([5]; first compound 1.265 µM) was 0.357. The relative viability ([5]; first compound 4 µM) was 0.32, the relative viability ([6]; first compound 0.04 µM) was 0.313 and the relative viability ([6]; first compound 0.1265 µM) was 0.272. The relative viability ([6]; first compound 0.4 µM) was 0.201, the relative viability ([6]; first compound 1.265 µM) was 0.134 and the relative viability ([6]; first compound 4 µM) was 0.143. For the same compound, the relative viability ([7]; first compound 0.04 µM) was 0.427, the relative viability ([7]; first compound 0.1265 µM) was 0.332 and the relative viability ([7]; first compound 0.4 µM) was 0.228. It also gave a relative viability ([7]; first compound 1.265 µM) of 0.144, a relative viability ([7]; first compound 4 µM) of 0.213 and a relative viability ([8]; first compound 0.04 µM) of 0.759. It also gave a relative viability ([8]; first compound 0.1265 µM) of 0.592, a relative viability ([8]; first compound 0.4 µM) of 0.696 and a relative viability ([8]; first compound 1.265 µM) of 0.696. It also gave a relative viability ([8]; first compound 4 µM) of 0.529.
For `Nc1ccn([C@@H]2O[C@H](CO)[C@@H](O)[C@@H]2O)c(=O)n1` [Cytarabine] + Cc1nc(Nc2ncc(C(=O)Nc3c(C)cccc3Cl)s2)cc(N2CCN(CCO)CC2)n1 [Dasatinib] (partner 0.075 µM), the relative viability ([1]; first compound 0.005 µM) was 0.419, the relative viability ([1]; first compound 0.01581 µM) was 0.221 and the relative viability ([1]; first compound 0.05 µM) was 0.218. For the same compound, the relative viability ([1]; first compound 0.1581 µM) was 0.125, the relative viability ([1]; first compound 0.5 µM) was 0.113 and the relative viability ([2]; first compound 0.005 µM) was 0.309. For the same compound, the relative viability ([2]; first compound 0.01581 µM) was 0.27, the relative viability ([2]; first compound 0.05 µM) was 0.236 and the relative viability ([2]; first compound 0.1581 µM) was 0.157. It also gave a relative viability ([2]; first compound 0.5 µM) of 0.163, a relative viability ([3]; first compound 0.005 µM) of 0.279 and a relative viability ([3]; first compound 0.01581 µM) of 0.298. It also gave a relative viability ([3]; first compound 0.05 µM) of 0.379, a relative viability ([3]; first compound 0.1581 µM) of 0.2 and a relative viability ([3]; first compound 0.5 µM) of 0.169. It also gave a relative viability ([4]; first compound 0.005 µM) of 0.304, a relative viability ([4]; first compound 0.01581 µM) of 0.275 and a relative viability ([4]; first compound 0.05 µM) of 0.295. For the same compound, the relative viability ([4]; first compound 0.1581 µM) was 0.192, the relative viability ([4]; first compound 0.5 µM) was 0.146 and the relative viability ([5]; first compound 0.005 µM) was 0.479. The relative viability ([5]; first compound 0.01581 µM) was 0.449, the relative viability ([5]; first compound 0.05 µM) was 0.286 and the relative viability ([5]; first compound 0.1581 µM) was 0.471. It also gave a relative viability ([5]; first compound 0.5 µM) of 0.291, a relative viability ([6]; first compound 0.005 µM) of 0.257 and a relative viability ([6]; first compound 0.01581 µM) of 0.234. For the same compound, the relative viability ([6]; first compound 0.05 µM) was 0.177, the relative viability ([6]; first compound 0.1581 µM) was 0.136 and the relative viability ([6]; first compound 0.5 µM) was 0.122. The relative viability ([7]; first compound 0.005 µM) was 0.302, the relative viability ([7]; first compound 0.01581 µM) was 0.306 and the relative viability ([7]; first compound 0.05 µM) was 0.447. The relative viability ([7]; first compound 0.1581 µM) was 0.284, the relative viability ([7]; first compound 0.5 µM) was 0.109 and the relative viability ([8]; first compound 0.005 µM) was 0.591. For the same compound, the relative viability ([8]; first compound 0.01581 µM) was 0.215, the relative viability ([8]; first compound 0.05 µM) was 0.195 and the relative viability ([8]; first compound 0.1581 µM) was 0.141. It also gave a relative viability ([8]; first compound 0.5 µM) of 0.135.
For `COc1cc2nccc(Oc3ccc(NC(=O)Nc4cc(C)on4)c(Cl)c3)c2cc1OC` [Tivozanib] + CCNC(=O)c1noc(-c2cc(C(C)C)c(O)cc2O)c1-c1ccc(CN2CCOCC2)cc1 [Luminespib] (partner 0.01 µM), the relative viability ([1]; first compound 0.005 µM) was 0.2, the relative viability ([1]; first compound 0.01581 µM) was 0.231 and the relative viability ([1]; first compound 0.05 µM) was 0.325. For the same compound, the relative viability ([1]; first compound 0.1581 µM) was 0.178, the relative viability ([1]; first compound 0.5 µM) was 0.18 and the relative viability ([2]; first compound 0.005 µM) was 0.179. The relative viability ([2]; first compound 0.01581 µM) was 0.225, the relative viability ([2]; first compound 0.05 µM) was 0.184 and the relative viability ([2]; first compound 0.1581 µM) was 0.233. It also gave a relative viability ([2]; first compound 0.5 µM) of 0.206, a relative viability ([3]; first compound 0.005 µM) of 1.03 and a relative viability ([3]; first compound 0.01581 µM) of 0.975. For the same compound, the relative viability ([3]; first compound 0.05 µM) was 1.03, the relative viability ([3]; first compound 0.5 µM) was 1.06 and the relative viability ([4]; first compound 0.005 µM) was 1.04. For the same compound, the relative viability ([4]; first compound 0.01581 µM) was 1.01, the relative viability ([4]; first compound 0.05 µM) was 0.973 and the relative viability ([4]; first compound 0.1581 µM) was 1.04. For the same compound, the relative viability ([4]; first compound 0.5 µM) was 0.984, the relative viability ([5]; first compound 0.005 µM) was 0.466 and the relative viability ([5]; first compound 0.01581 µM) was 0.55. For the same compound, the relative viability ([5]; first compound 0.05 µM) was 0.602, the relative viability ([5]; first compound 0.5 µM) was 0.504 and the relative viability ([6]; first compound 0.005 µM) was 0.172. For the same compound, the relative viability ([6]; first compound 0.01581 µM) was 0.209, the relative viability ([6]; first compound 0.05 µM) was 0.213 and the relative viability ([6]; first compound 0.1581 µM) was 0.178. The relative viability ([6]; first compound 0.5 µM) was 0.203, the relative viability ([7]; first compound 0.005 µM) was 0.253 and the relative viability ([7]; first compound 0.01581 µM) was 0.36. For the same compound, the relative viability ([7]; first compound 0.05 µM) was 0.573, the relative viability ([7]; first compound 0.1581 µM) was 0.276 and the relative viability ([7]; first compound 0.5 µM) was 0.594. It also gave a relative viability ([8]; first compound 0.005 µM) of 1.09, a relative viability ([8]; first compound 0.01581 µM) of 0.902 and a relative viability ([8]; first compound 0.05 µM) of 1.02. It also gave a relative viability ([8]; first compound 0.1581 µM) of 0.836 and a relative viability ([8]; first compound 0.5 µM) of 1.01.
